The assay deals with B6C3F1 mice, B16 melanoma ip, median survival T/C. Description: NCI In Vivo Anticancer Drug Screen. Data for tumor model B16 Melanoma (intraperitoneal) in B6C3F1 mice. As to conditions: endpoint: median survival time, higher = longer survival. A digest of the protocol: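 Values are T/C ratios: the measurement in treated animals divided by that in vehicle-treated controls, using survival or tumor size in mice carrying transplantable tumors.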

Where [1] appears, read: dose: 25.0 mg/kg/injection, schedule: Q01DX009 (ip), vehicle: saline with Tween-80.
[2] abbreviates: dose: 50.0 mg/kg/injection, schedule: Q01DX009 (ip), vehicle: saline with Tween-80.
Setting [3] is: dose: 100.0 mg/kg/injection, schedule: Q01DX009 (ip), vehicle: saline with Tween-80.
Where [4] appears, read: dose: 200.0 mg/kg/injection, schedule: Q01DX009 (ip), vehicle: saline with Tween-80.
Setting [5] is: dose: 12.5 mg/kg/injection, schedule: Q01DX009 (ip), vehicle: saline with Tween-80.
The mark [6] stands for this setting: dose: 12.5 mg/kg/injection, schedule: Q01DX009 (ip), vehicle: saline.
The mark [7] stands for this setting: dose: 25.0 mg/kg/injection, schedule: Q01DX009 (ip), vehicle: saline.
Setting [8] is: dose: 50.0 mg/kg/injection, schedule: Q01DX009 (ip), vehicle: saline.
The mark [9] stands for this setting: dose: 6.25 mg/kg/injection, schedule: Q01DX009 (ip), vehicle: saline with Tween-80.

Structures are written as SMILES. Where “and” joins values, the source holds several entries; their conditions need not be identical. Equal values may be shown once. Inconclusive results and toxic doses are left out.

Data on 18 molecules can be found in PubChem BioAssay AID200 (DTP/NCI, 2004).

Consider `CN=C(N)N/N=C(\C)c1ccc2sc3ccc(/C(C)=N/NC(N)=NC)cc3c2c1`, for which the T/C was 108 % of control under setting [1]; 113 % of control under setting [2]; 120 % of control under setting [3]; 119 % of control under setting [4]; 95 % of control (dose: 400.0 mg/kg/injection, schedule: Q01DX009 (ip), vehicle: saline with Tween-80).
For `CC1Oc2cc3c(-c4c(O)cc(O)c5c(O)c6c(cc45)OC(C)C(C)C6=O)c(O)cc(O)c3c(O)c2C(=O)C1C` (centres undefined), the T/C (dose: 0.31 mg/kg/injection, schedule: Q01DX009 (ip), vehicle: suspension in saline) is 117 % of control; the T/C (dose: 0.62 mg/kg/injection, schedule: Q01DX009 (ip), vehicle: suspension in saline) was 101 % of control; the T/C (dose: 1.25 mg/kg/injection, schedule: Q01DX009 (ip), vehicle: suspension in saline) is 109 % of control; the T/C (dose: 2.5 mg/kg/injection, schedule: Q01DX009 (ip), vehicle: suspension in saline) is 116 % of control.
Take `CCO/C=C1\SC(=S)N(c2ccccc2C)C1=O`: the T/C runs as follows: under setting [5], 111 % of control; under setting [1], 111 % of control; under setting [2], 108 % of control and 105 % of control; under setting [3], 109 % of control and 116 % of control; under setting [4], 112 % of control and 116 % of control.
Turning to `Cc1ccnc(NN=O)c1`, the T/C reads like this: (dose: 3.12 mg/kg/injection, schedule: Q01DX009 (ip), vehicle: water) 99 % of control; (dose: 6.25 mg/kg/injection, schedule: Q01DX009 (ip), vehicle: water) 100 % of control.
As for `COC(=O)C12OCC34C(CC5C(C)=CC(=O)C(O)C5(C)C3C(O)C1O)OC(=O)C(OC(=O)CC(C)C)C24` (centres undefined), the T/C (dose: 0.25 mg/kg/injection, schedule: Q01DX009 (ip), vehicle: saline + alcohol) is 164 % of control; the T/C (dose: 0.5 mg/kg/injection, schedule: Q01DX009 (ip), vehicle: saline + alcohol) was 180 % of control; the T/C (dose: 1.0 mg/kg/injection, schedule: Q01DX009 (ip), vehicle: saline + alcohol) was 164 % of control; the T/C (dose: 2.0 mg/kg/injection, schedule: Q01DX009 (ip), vehicle: saline + alcohol) is 159 % of control.
For the molecule `CCC1OC(OC)C=CC1=O` (centres undefined), the T/C runs as follows: under setting [6], 106 % of control; under setting [7], 108 % of control; under setting [8], 104 % of control.
In the case of `C=CC(C)(C)n1cc(C2=C(O)C(=O)C(c3cn(C(C)(C)C=C)c4ccccc34)=C(O)C2=O)c2ccccc21`, the T/C reads like this: (dose: 2.5 micrograms/kg/injection, schedule: Q01DX009 (ip), vehicle: DMSO) 87 % of control; (dose: 5.0 micrograms/kg/injection, schedule: Q01DX009 (ip), vehicle: DMSO) 91 % of control; (dose: 10.0 micrograms/kg/injection, schedule: Q01DX009 (ip), vehicle: DMSO) 86 % of control; (dose: 20.0 micrograms/kg/injection, schedule: Q01DX009 (ip), vehicle: DMSO) 87 % of control.
As for `Cc1cc2nc(Cc3nc4cc(C)c(C)cc4[nH]3)[nH]c2cc1C`, the T/C by setting is: under setting [2], 94 % of control; under setting [3], 93 % of control; under setting [4], 88 % of control.
Turning to `CC[C@H](CC[C@@H](C)[C@H]1CC[C@H]2[C@@H]3CC=C4C[C@@H](OC(C)=O)CC[C@]4(C)[C@H]3CC[C@]12C)C(C)C`, the T/C (dose: 12.5 mg/kg/injection, schedule: Q01DX009 (ip), vehicle: Klucel (hydroxypropylcellulose) (HPC)) is 95 % of control.
As to `CCCCN(CCCC)CCNc1ccc(Cl)c2oc3cc(C)ccc3c(=O)c12`, the T/C by setting is: under setting [8], 94 % of control; (dose: 100.0 mg/kg/injection, schedule: Q01DX009 (ip), vehicle: saline) 87 % of control.
As to `Cc1ccc(N)c(N)c1`, the T/C under setting [1] was 95 % of control, the T/C under setting [2] was 99 % of control, the T/C under setting [3] was 102 % of control and the T/C under setting [4] was 104 % of control.
Take `C=C1C(=O)[C@]23C[C@H]1CC[C@H]2[C@@]12CO[C@@H](O)[C@@H]1C(C)(C)[C@@H](O)C[C@@H]2OC3=O`: the T/C under setting [1] was 102 % of control and the T/C under setting [2] was 102 % of control.
In the case of `O=C(Oc1ccc(-c2ccc(Br)cc2)cc1)c1ccco1`, the T/C by setting is: (dose: 0.78 mg/kg/injection, schedule: Q01DX009 (ip), vehicle: saline with Tween-80) 107 % of control; (dose: 1.56 mg/kg/injection, schedule: Q01DX009 (ip), vehicle: saline with Tween-80) 106 % of control; (dose: 3.13 mg/kg/injection, schedule: Q01DX009 (ip), vehicle: saline with Tween-80) 102 % of control; under setting [9], 111 % of control and 100 % of control; under setting [1], 92 % of control; under setting [2], 97 % of control.
In the case of `COc1cccc2c1C(=O)c1c(O)c3c(c(O)c1C2=O)C[C@@](O)(C(C)O)C[C@@H]3OC1CC(N2CCOCC2)C(O)C(C)O1` (some centres undefined), the T/C is, setting by setting: (dose: 0.06 mg/kg/injection, schedule: Q01DX001 (ip), vehicle: water) 111 % of control; (dose: 0.13 mg/kg/injection, schedule: Q01DX001 (ip), vehicle: water) 115 % of control; (dose: 62.5 micrograms/kg/injection, schedule: Q01DX001 (ip), vehicle: water) 107 % of control; (dose: 125.0 micrograms/kg/injection, schedule: Q01DX001 (ip), vehicle: water) 106 % of control; (dose: 250.0 micrograms/kg/injection, schedule: Q01DX001 (ip), vehicle: water) 120 % of control.
In the case of `O=C1C=CC(=Nc2ccc3c(c2)C(Br)c2ccccc2-3)O1` (centres undefined), the T/C was 92 % of control (dose: 5.0 mg/kg/injection, schedule: Q01DX009 (ip), vehicle: saline) and 87 % of control (dose: 10.0 mg/kg/injection, schedule: Q01DX009 (ip), vehicle: saline).
As to `COc1cc2cc(c1Cl)N1CC(=O)C(C)(O)C(=O)N(C)C(C)C(=O)OC(CC1=O)C1(C)OC1C(C)C1CC(O)(NC(=O)O1)C(OC)/C=C\C=C(\C)C2OC` (centres undefined), the T/C (dose: 4.0 micrograms/kg/injection, schedule: Q01DX009 (ip), vehicle: distilled water + alcohol) was 109 % of control; the T/C (dose: 8.0 micrograms/kg/injection, schedule: Q01DX009 (ip), vehicle: distilled water + alcohol) was 93 % of control; the T/C (dose: 16.0 micrograms/kg/injection, schedule: Q01DX009 (ip), vehicle: distilled water + alcohol) is 111 % of control; the T/C (dose: 32.0 micrograms/kg/injection, schedule: Q01DX009 (ip), vehicle: distilled water + alcohol) is 95 % of control.
In the case of `CCCCCCCCCCCCSC1=C(Cl)C(=O)C(OC)=C(OC)C1=O`, the T/C was 95 % of control and 102 % of control (dose: 3.12 mg/kg/injection, schedule: Q01DX009 (ip), vehicle: saline with Tween-80); 95 % of control and 103 % of control under setting [9]; 89 % of control and 94 % of control under setting [5]; 90 % of control and 100 % of control under setting [1]; 88 % of control and 101 % of control under setting [2]; 89 % of control under setting [3].
Turning to `CN(Cc1cnc2nc(N)nc(N)c2n1)c1c(Cl)cc(C(=O)NC(CCC(=O)O)C(=O)O)cc1Cl` (centres undefined), the T/C reads like this: under setting [6], 96 % of control; under setting [7], 91 % of control.
